The record followed here is patent publication US20240132457A1, “3-(2-(BENZO[D]THIAZOL-2-YL)-2-(PHENYLSUFONAMIDO)ETHYL)BENZIMIDAMIDE DERIVATIVES AND RELATED COMPOUNDS AS TMPRSS2 INHIBITORS FOR THE TREATMENT OF VIRAL INFECTIONS” (INTEGERBIO, INC., priority 2020, published 2024).

Some results are limits rather than exact numbers.

This assay deals with T1, Recombinant human TMPRSS2 protein (106-492 aa) (Homo sapiens, UniProt O15393).
T1 construct: Human TMPRSS2-(AA 106-492)-; purchased CusaBio CSB-YP023924HU; host or cells: yeast
T1 sequence (O15393 106-492): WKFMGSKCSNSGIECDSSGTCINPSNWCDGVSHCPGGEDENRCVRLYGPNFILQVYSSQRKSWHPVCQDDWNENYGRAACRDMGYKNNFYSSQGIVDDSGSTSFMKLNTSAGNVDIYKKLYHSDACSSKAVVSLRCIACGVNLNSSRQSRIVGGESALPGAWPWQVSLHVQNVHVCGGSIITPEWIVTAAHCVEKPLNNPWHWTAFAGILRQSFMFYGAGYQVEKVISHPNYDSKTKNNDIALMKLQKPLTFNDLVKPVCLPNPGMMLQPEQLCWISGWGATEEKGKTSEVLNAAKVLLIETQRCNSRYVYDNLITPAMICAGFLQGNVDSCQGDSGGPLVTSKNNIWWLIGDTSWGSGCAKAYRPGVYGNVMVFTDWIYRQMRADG
Kind of assay: TMPRSS2 Assay 1 (Example 41), fluorogenic Boc-Gln-Ala-Arg-AMC cleavage. The format is biochemical. The note with it: TMPRSS2 10 nM, substrate 25 μM, 20 min pre-incubation. As to the method:
The enzyme (TMPRSS2, CusaBio cat #CSB-YP023924HU. Recombinant human TMPRSS2 protein (106-492 aa)N-terminal 6×His-tagged (“6×His” disclosed as SEQ ID NO: 4), expressed in yeast cells; MW=44.8 kDa, lyophilized from 20 mM: Tris HCl, 0.5 M NaCl, 6% Trehalose, pH 8.0, >85% purity as determined by SDS-PAGE. Uniprot: 015393; 10 nM in the reaction) and substrate (Boc-Gln-Ala-Arg-AMC; Enzo Cat #BML-P237-0005, MW=581.76 Da. 25 μM in the reaction) were prepared in Reaction Buffer (50 mM Tris-HCl pH 8, 150 mM NaCl, 0.005% Brij35, 1% DMSO). After the enzyme solution was delivered into the reaction well, the compounds in DMSO were delivered to the reaction mixture by using Acoustic Technology (Echo 550, LabCyte Inc. Sunnyvale, CA) in nanoliter range. After 20 min pre-incubation, the substrate solution was delivered into the reaction well to initiate the reaction. The enzyme activities were monitored every 5 min as a time-course measurement of the increase in fluorescence signal from fluorescently-labeled peptide substrate for 120 min. at room temperature. Data was analyzed by taking slope*(signal/time) of linear portion of measurement. The slope was calculated using Excel, and the curve fits were performed using Prism software.
For `COc1ccc2nc(C(Cc3cccc(C(=N)N)c3)NS(=O)(=O)c3ccccc3)sc2c1` (single isomer, unassigned) [11 (enantiomer 2), 3-[2-Benzenesulfonamido-2-(6-methoxy-1,3-benzothiazol-2-yl)ethyl]benzene-1-carboximidamide], the IC50 was < 10 µM.

For the compound `N=C(N)c1cccc(CC(NS(=O)(=O)c2ccccc2)c2nc3cc(C(F)(F)F)ccc3s2)c1` (stereo not drawn) [Compound 12, 3-{2-Benzenesulfonamido-2-[5-(trifluoromethyl)-1,3-benzothiazol-2-yl]ethyl}benzene-1-carboximidamide], the IC50 is < 10 µM.

As for `N=C(N)c1cccc(CC(NS(=O)(=O)c2ccccc2)c2nc3cc(C(F)(F)F)ccc3s2)c1` (single isomer, unassigned) [12 (enantiomer 2), 3-{2-Benzenesulfonamido-2-[5-(trifluoromethyl)-1,3-benzothiazol-2-yl]ethyl}benzene-1-carboximidamide], the concentration for half-maximal inhibition (IC50) was < 10 µM.

Consider `N=C(N)c1cccc(CC(NS(=O)(=O)c2cccc(-c3ccc(Cl)cc3Cl)c2)c2nc3ccccc3s2)c1` (single isomer, unassigned) [3 (enantiomer 1), 3-[2-(1,3-Benzothiazol-2-yl)-2-{2′,4′-dichloro-[1,1′-biphenyl]-3-sulfonamido}ethyl]benzene-1-carboximidamide], for which the IC50 was > 10 µM.

Take `CN(C)CCN(C)c1cccc2nc(C(Cc3cccc(C(=N)N)c3)NS(=O)(=O)c3ccccc3)sc12` (stereo not drawn) [Compound 16, 3-[2-Benzenesulfonamido-2-(7-{[2-(dimethylamino)ethyl](methyl)amino}-1,3-benzothiazol-2-yl)ethyl]benzene-1-carboximidamide]: the IC50 was > 10 µM.

For `N=C(N)c1cccc(CC(NS(=O)(=O)c2ccccc2)c2nc3cccnc3s2)c1` (stereo not drawn) [Compound 19, 3-(2-Benzenesulfonamido-2-{[1,3]thiazolo[5,4-b]pyridin-2-yl}ethyl)benzene-1-carboximidamide], the IC50 was < 10 µM.

As to `COCCN(C)c1cccc2nc(C(Cc3cccc(C(=N)N)c3)NS(=O)(=O)c3ccccc3)sc12` (stereo not drawn) [Compound 17, 3-(2-Benzenesulfonamido-2-{7-[(2-methoxyethyl)(methyl)amino]-1,3-benzothiazol-2-yl}ethyl)benzene-1-carboximidamide], the IC50 was < 10 µM.

On to `N=C(N)c1cccc(CC(NS(=O)(=O)c2ccccc2)c2nc3c(s2)CNCC3)c1` (stereo not drawn) [Compound 10, 3-(2-Benzenesulfonamido-2-{4H,5H,6H,7H-[1,3]thiazolo[5,4-c]pyridin-2-yl}ethyl)benzene-1-carboximidamide], for which the 50% inhibitory concentration (IC50) is > 10 µM.

`N=C(N)c1cccc(C[C@H](NS(=O)(=O)c2ccccc2)c2nc3ccc(C(F)(F)F)cc3s2)c1` [14 (batch 1), 3-[(2S)-2-Benzenesulfonamido-2-[6-(trifluoromethyl)-1,3-benzothiazol-2-yl]ethyl]benzene-1-carboximidamide]: the IC50 is < 10 µM.

As for `COc1ccc2nc(C(Cc3cccc(C(=N)N)c3)NS(=O)(=O)c3ccccc3)sc2c1` (single isomer, unassigned) [11 (enantiomer 1), 3-[2-Benzenesulfonamido-2-(6-methoxy-1,3-benzothiazol-2-yl)ethyl]benzene-1-carboximidamide], the IC50 is > 10 µM.

`N=C(N)c1cccc(CC(NS(=O)(=O)c2ccccc2)c2nc3cccc(Cl)c3s2)c1` (stereo not drawn) [Compound 13, 3-[2-Benzenesulfonamido-2-(7-chloro-1,3-benzothiazol-2-yl)ethyl]benzene-1-carboximidamide]: the IC50 was < 10 µM.

As to `N=C(N)c1cccc(CC(NS(=O)(=O)c2cccc(Br)c2)c2nccs2)c1` (stereo not drawn) [Compound 4, 3-[2-(3-Bromobenzenesulfonamido)-2-(1,3-thiazol-2-yl)ethyl]benzene-1-carboximidamide], the IC50 is > 10 µM.

As for `N=C(N)c1cccc(CC(NS(=O)(=O)c2ccccc2)c2nc3ccc(C(F)(F)F)cc3s2)c1` (single isomer, unassigned) [14 (enantiomer 2)], the IC50 was < 10 µM.

As to `N=C(N)c1cccc(CC(NS(=O)(=O)c2ccccc2)c2ncc[nH]2)c1` (stereo not drawn) [Compound 7, 2-[2-{3-[Amino(iminiumyl)methyl]phenyl}-1-benzenesulfonamidoethyl]-1H-imidazol-3-ium dichloride], the 50% inhibitory concentration (IC50) is > 10 µM.

For `N=C(N)c1cccc(CC(NS(=O)(=O)c2ccccc2)c2nc3ccccc3s2)c1` (single isomer, unassigned) [Compound 1 (enantiomer 1, batch 1), 3-[2-Benzenesulfonamido-2-(1,3-benzothiazol-2-yl)ethyl]benzene-1-carboximidamide], the IC50 is > 10 µM.

Turning to `COc1ccc2nc(C(Cc3cccc(C(=N)N)c3)NS(=O)(=O)c3ccccc3)sc2c1` (stereo not drawn) [Compound 8, 3-[2-Benzenesulfonamido-2-(6-methoxy-1,3-benzothiazol-2-yl)ethyl]benzene-1-carboximidamide], the IC50 is < 10 µM.

On to `Cn1cnnc1[C@H](Cc1cccc(C(=N)N)c1)NS(=O)(=O)c1cccc(-c2ccc(Cl)cc2Cl)c1` [Compound 6, 3-[(2S)-2-{2′,4′-Dichloro-[1,1′-biphenyl]-3-sulfonamido}-2-(4-methyl-4H-1,2,4-triazol-3-yl)ethyl]benzene-1-carboximidamide], for which the IC50 was > 10 µM.

Turning to `N=C(N)c1cccc(CC(NS(=O)(=O)c2ccccc2)c2nc3ccc(C(F)(F)F)cc3s2)c1` (single isomer, unassigned) [14 (enantiomer 1)], the IC50 was > 10 µM.

`N=C(N)c1cccc(CC(NS(=O)(=O)c2ccccc2)c2nc3ccccc3s2)c1` (single isomer, unassigned) [Compound 1 (enantiomer 2, batch 1), 3-[2-Benzenesulfonamido-2-(1,3-benzothiazol-2-yl)ethyl]benzene-1-carboximidamide]: the IC50 is < 10 µM.

Turning to `N=C(N)c1cccc(CC(NS(=O)(=O)c2ccccc2)c2nc3cccc(Cl)c3s2)c1` (single isomer, unassigned) [13 (enantiomer 2), 3-[2-Benzenesulfonamido-2-(7-chloro-1,3-benzothiazol-2-yl)ethyl]benzene-1-carboximidamide], the IC50 is < 10 µM.

With `N=C(N)c1cccc(CC(NS(=O)(=O)c2ccccc2)c2nc3cnccc3s2)c1` (stereo not drawn) [Compound 18, 3-(2-Benzenesulfonamido-2-{[1,3]thiazolo[4,5-c]pyridin-2-yl}ethyl)benzene-1-carboximidamide], the IC50 is < 10 µM.

Regarding `N=C(N)c1cccc(CC(NS(=O)(=O)c2ccccc2)c2nc3ccc(O)cc3s2)c1` (stereo not drawn) [Compound 20, 3-[2-(benzenesulfonamido)-2-(6-hydroxy-1,3-benzothiazol-2-yl)ethyl]benzamidine], the IC50 was < 10 µM.

As for `N=C(N)c1cccc(CC(NS(=O)(=O)c2cccc(-c3ccc(Cl)cc3Cl)c2)c2nccs2)c1` (single isomer, unassigned) [5 (Isomer 1, batch 1), 3-[2-{2′,4′-Dichloro-[1,1′-biphenyl]-3-sulfonamido}-2-(1,3-thiazol-2-yl)ethyl]benzene-1-carboximidamide], the IC50 was < 10 µM.

`N=C(N)c1cccc(CC(NS(=O)(=O)c2cccc(-c3ccc(Cl)cc3Cl)c2)c2nccs2)c1` (single isomer, unassigned) [Compound 5 (Isomer 2), 3-[2-{2′,4′-Dichloro-[1,1′-biphenyl]-3-sulfonamido}-2-(1,3-thiazol-2-yl)ethyl]benzene-1-carboximidamide]: the IC50 is < 10 µM.

As a reminder, the IC50 is the midpoint of a concentration-inhibition curve.
